# Experimental data published in PubChem BioAssay (NCI).
# “And” between values parts separate entries of the source, which are not always exact repeats. Equal values may be shown once.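 Exposure lasted 48 hours, with cells grown in 96-well plates and compounds tested at five concentrations. GI50: concentration for 50% inhibition of growth. Definition used: TGI = concentration required for complete inhibition of growth.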 Where a SMILES comes first, the peptide text is derived from it. [ ]: non-standard residue; d: D form. The star is where a group is joined. ξ: configuration not given here. NMeF = CN[CH](Cc1ccccc1)C(=O)O; ξNMeF = CNC(Cc1ccccc1)C(=O)O; NMeV = CN[CH](C(=O)O)C(C)C; Boc = CC(C)(C)OC(=O)*; OBn = c1ccc(CO*)cc1
# What was measured:
# Test in all cases: NCI tumour cell line growth inhibition, 48 h
# HOP-18 NSCLC = test system: HOP-18 NSCLC
# LXFL 529 NSCLC = test system: LXFL 529 NSCLC
# DMS 114 small cell lung = test system: DMS 114 small cell lung
# KM20L2 colon = test system: KM20L2 colon
# XF 498 CNS = test system: XF 498 CNS
# DLD-1 colon = test system: DLD-1 colon
# SNB-78 CNS = test system: SNB-78 CNS
# M19-MEL melanoma = test system: M19-MEL melanoma
# RXF-631 renal = test system: RXF-631 renal
# DMS 273 small cell lung = test system: DMS 273 small cell lung
# P388 leukemia = test system: P388 leukemia
# SN12K1 renal = test system: SN12K1 renal
# P388/ADR leukemia = test system: P388/ADR leukemia
Compound,TGI (HOP-18 NSCLC),TGI (LXFL 529 NSCLC),TGI (DMS 114 small cell lung),TGI (KM20L2 colon),TGI (XF 498 CNS),TGI (DLD-1 colon),TGI (SNB-78 CNS),TGI (M19-MEL melanoma),TGI (RXF-631 renal),TGI (DMS 273 small cell lung),TGI (P388 leukemia),TGI (SN12K1 renal),TGI (P388/ADR leukemia),GI50 (LXFL 529 NSCLC),GI50 (KM20L2 colon),GI50 (XF 498 CNS),GI50 (M19-MEL melanoma)
CCN(CC)CCNc1ccc2ncn3c4ccc(OC)cc4c(=O)c1c23,62 µM,20 µM,25.2 µM,8.76 µM,25.1 µM,20 µM,30.9 µM,20.4 µM,15.8 µM,14.9 µM,–,–,–,–,–,–,–
CC(C)[C@@H](C(=O)N(C)[C@H](C(=O)N1CCC[C@H]1C(=O)OCc1ccccc1)C(C)C)N(C)C(=O)C(Cc1ccccc1)N(C)C(=O)[C@H](NC(=O)OC(C)(C)C)C(C)C (some centres not stated) (Boc-[dV][ξNMeF][NMeV][NMeV]P-OBn),> 100 µM,> 100 µM,> 31.6 µM,> 31.6 µM,27.9 µM,> 31.6 µM,> 31.6 µM,> 31.6 µM,–,> 31.6 µM,–,–,–,–,–,–,–
O=C(O)CCC(NC(=O)c1ccc(Nc2cnc3cc(C(F)(F)F)ccc3n2)cc1)C(=O)O (configuration not stated),> 100 µM,–,> 100 µM,> 100 µM,> 100 µM,> 100 µM,> 100 µM,–,–,> 100 µM,> 100 µM,> 100 µM,> 100 µM,–,–,–,–
COc1ccc2c(c1)CCc1c-2[nH]c2cc3c(cc2c1=O)OCO3,> 100 µM,> 100 µM,–,–,> 100 µM,> 100 µM,> 100 µM,> 100 µM,–,> 100 µM,–,–,–,–,–,–,–
C=C1CC(OC)(C(OC)C(=O)N[C@H]2OCO[C@H]3C2O[C@H](C[C@@H](COC)OC)C(C)(C)C3OC)O[C@H](C)[C@@H]1C (some centres not stated),23.9 µM,–,13.9 µM,> 47 µM,2.54 µM,9.33 µM,4.81 µM,5.93 µM,–,3.79 µM,0.691 µM,15.2 µM,1.4 µM,–,–,–,–
O=C(NN1C(=O)CS(=O)(=O)C1c1ccc(Cl)c(Cl)c1)c1ccncc1 (configuration not stated),> 100 µM,–,> 100 µM,> 100 µM,> 100 µM,> 100 µM,> 100 µM,> 100 µM,–,> 31.6 µM,> 60.1 µM,> 100 µM,> 74.8 µM,–,–,–,–
Nc1nc(SCC(=O)c2ccccc2)c2[nH]cnc2n1,> 100 µM,–,> 100 µM,> 100 µM,> 100 µM,> 100 µM,–,> 100 µM,–,> 100 µM,–,–,–,–,–,–,–
CC(=O)[O-].CC(=O)[O-].O=C(N/N=C/c1cc(Cl)cc(Cl)c1[OH2+])c1ccncc1.[Mn+2],–,–,–,16 µM,–,–,–,–,–,–,–,–,–,–,–,–,–
CC(C)C(NC(=O)OC(C)(C)C)C(=O)N(C)C(Cc1ccccc1)C(=O)N(C)C(C(=O)OCc1ccccc1)C(C)C (stereo not drawn) (Boc-Val-[NMeF]-[NMeV]-OBn; configuration not given here),–,> 100 µM,> 100 µM,> 100 µM,9.63 µM and 74.8 µM,–,–,> 100 µM,–,> 100 µM,–,–,–,14.1 µM and 33.2 µM,> 100 µM and 49.3 µM,3.54 µM and 28.6 µM,87.4 µM and 42.2 µM
CCN(CC)C(=O)CCn1cc(F)c(=O)[nH]c1=O,–,> 100 µM,> 100 µM,> 100 µM,> 100 µM,–,> 100 µM,> 100 µM,–,> 100 µM,–,–,–,–,–,–,–
Cc1ccc(Nc2cccc3c2C(=O)c2cccc(Nc4ccc(C)cc4S(=O)(=O)O)c2C3=O)c(S(=O)(=O)O)c1,> 100 µM,> 100 µM,> 100 µM,> 100 µM,–,> 100 µM,> 100 µM,> 100 µM,> 100 µM,> 100 µM,–,–,–,–,–,–,–
